According to ChEMBL document CHEMBL1121583, “Synthesis and structure-activity studies of a series of 7 alpha-halogeno corticosteroids” (1980):

Test system: Mus musculus
Experiment: Relative topical anti inflammatory activity was measured in mice by comparing with cumulative potency of betamethasone valerate by using croton oil ear assay
Assay type: functional

Row | SMILES | Potency
1 | CCC(=O)OCC(=O)[C@@]1(OC(=O)CC)[C@@H](C)CC2C3C(C(O)C[C@@]21C)[C@@]1(C)C=CC(=O)C=C1C[C@H]3Br (some centres not stated) | 186
2 | CC(=O)OCC(=O)[C@@]1(O)[C@@H](C)CC2C3C(C(O)C[C@@]21C)[C@@]1(C)C=CC(=O)C=C1C[C@H]3Cl (some centres not stated) | 81
3 | CCC(=O)OCC(=O)[C@@]1(OC(=O)CC)[C@H](C)CC2C3C(C(O)C[C@@]21C)[C@@]1(C)C=CC(=O)C=C1C[C@H]3F (some centres not stated) | 78
4 | CC(=O)OCC(=O)[C@@]1(O)[C@H](C)CC2C3C(C(O)C[C@@]21C)[C@@]1(C)C=CC(=O)C=C1C[C@H]3Br (some centres not stated) | 20
5 | CCC(=O)OCC(=O)[C@@]1(OC(=O)CC)[C@@H](C)CC2C3C(C(O)C[C@@]21C)[C@@]1(C)C=CC(=O)C=C1C[C@H]3I (some centres not stated) | 103
6 | CC(=O)OCC(=O)[C@@]1(O)[C@@H](C)CC2C3C=CC4=CC(=O)C=C[C@]4(C)C3C(O)C[C@@]21C (some centres not stated) | 29
7 | CCC(=O)OCC(=O)[C@@]1(OC(=O)CC)[C@H](C)CC2C3CCC4=CC(=O)C=C[C@]4(C)C3C(O)C[C@@]21C (some centres not stated) | 74
8 | CCC(=O)OCC(=O)[C@@]1(OC(=O)CC)[C@H](C)CC2C3C(C(O)C[C@@]21C)[C@@]1(C)C=CC(=O)C=C1C[C@H]3Br (some centres not stated) | 120
9 | CCC(=O)OCC(=O)[C@@]1(OC(=O)CC)[C@@H](C)CC2C3C(C(O)C[C@@]21C)[C@@]1(C)C=CC(=O)C=C1C[C@H]3F (some centres not stated) | 69
10 | CCC(=O)OCC(=O)[C@@]1(OC(=O)CC)[C@H](C)CC2C3C=CC4=CC(=O)C=C[C@]4(C)C3C(O)C[C@@]21C (some centres not stated) | 27
11 | CCC(=O)OCC(=O)[C@@]1(OC(=O)CC)[C@@H](C)CC2C3C=CC4=CC(=O)C=C[C@]4(C)C3C(O)C[C@@]21C (some centres not stated) | 57
12 | CCC(=O)OCC(=O)[C@@]1(OC(=O)CC)[C@H](C)CC2C3C(C(O)C[C@@]21C)[C@@]1(C)C=CC(=O)C=C1C[C@H]3I (some centres not stated) | 36
13 | CC(=O)OCC(=O)[C@@]1(O)[C@H](C)CC2C3C=CC4=CC(=O)C=C[C@]4(C)C3C(O)C[C@@]21C (some centres not stated) | 4
14 | CC(=O)OCC(=O)[C@@]1(O)[C@@H](C)CC2C3C(C(O)C[C@@]21C)[C@@]1(C)C=CC(=O)C=C1C[C@H]3Br (some centres not stated) | 94
15 | CC(=O)OCC(=O)[C@@]1(O)[C@H](C)CC2C3CCC4=CC(=O)C=C[C@]4(C)C3C(O)C[C@@]21C (some centres not stated) | 10
16 | CCC(=O)OCC(=O)[C@@]1(OC(=O)CC)[C@@H](C)CC2C3CCC4=CC(=O)C=C[C@]4(C)C3C(O)C[C@@]21C (some centres not stated) | 76
17 | CC(=O)OCC(=O)[C@@]1(O)[C@@H](C)CC2C3C(C(O)C[C@@]21C)[C@@]1(C)C=CC(=O)C=C1C[C@H]3I (some centres not stated) | 54
18 | CC(=O)OCC(=O)[C@@]1(O)[C@@H](C)CC2C3C(C(O)C[C@@]21C)[C@@]1(C)C=CC(=O)C=C1C[C@H]3F (some centres not stated) | 16
19 | CC(=O)OCC(=O)[C@@]1(O)[C@@H](C)CC2C3CCC4=CC(=O)C=C[C@]4(C)C3C(O)C[C@@]21C (some centres not stated) | 26
20 | CC(=O)OCC(=O)[C@@]1(O)[C@H](C)CC2C3C(C(O)C[C@@]21C)[C@@]1(C)C=CC(=O)C=C1C[C@H]3Cl (some centres not stated) | 32
21 | CCC(=O)OCC(=O)[C@@]1(OC(=O)CC)[C@@H](C)C[C@H]2[C@@H]3CCC4=CC(=O)C=C[C@]4(C)[C@@]3(F)[C@@H](O)C[C@@]21C [BETAMETHASONE DIPROPIONATE] | 165
22 | CCCCC(=O)O[C@]1(C(=O)CO)[C@@H](C)C[C@H]2[C@@H]3CCC4=CC(=O)C=C[C@]4(C)[C@@]3(F)[C@@H](O)C[C@@]21C [BETAMETHASONE VALERATE] | 100
